Laboratory results taken from PMC8296573, “Synthesis and Biological Evaluation of Fingolimod Derivatives as Antibacterial Agents” (ACS Omega, 2021).
≈ marks a conversion by molar mass, not a printed value. Where two headings read alike, the source gives them in different places. Marks after values point to notes of the source that are not given here.

What was measured:
S. aureus ATCC 25923 [1] = experiment: Antibacterial activity, pre-exposure (planktonic cells and biofilm formation); assay type: cell-based, Staphylococcus aureus; settings: for inhibition at 5 µM / inhibition at 10 µM / inhibition at 15 µM / inhibition at 25 µM / Average inhibition %, biofilms viability / Average inhibition %, planktonic cells viability: pre-exposure, ± SD
Summary of the method: (§1)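 Read-outs were turbidity and resazurin reduction for planktonic cells, and resazurin followed by crystal violet biomass (A595) for biofilms. Compounds were present from inoculation onward, with 18 h aerobic growth at 37 °C under shaking.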

A. baumannii NCTC 13423 = experiment: Antibacterial activity, pre-exposure; assay type: cell-based, Acinetobacter baumannii; settings: for Average inhibition %, biofilms viability / Average inhibition %, planktonic cells viability / inhibition at 10 µM / inhibition at 15 µM / inhibition at 25 µM / inhibition at 50 µM: A. baumannii NCTC 13423, pre-exposure, ± SD
Summary of the method: as §1

P. aeruginosa ATCC 9027 = experiment: Antibacterial activity, pre-exposure; assay type: cell-based, Pseudomonas aeruginosa; settings: for Average inhibition %, biofilms viability / Average inhibition %, planktonic cells viability / inhibition at 50 µM / inhibition at 100 µM / inhibition at 150 µM / inhibition at 200 µM: P. aeruginosa ATCC 9027, pre-exposure, ± SD; for inhibition at 50 µM / inhibition at 100 µM / inhibition at 150 µM / inhibition at 200 µM: ATCC9027
Summary of the method: as §1

S. aureus ATCC 25923 [2] = experiment: Antibacterial activity, post-exposure on preformed 18-h-old biofilms; assay type: cell-based, Staphylococcus aureus; settings: ± SD; for inhibition at 25 µM / inhibition at 50 µM / inhibition at 100 µM / inhibition at 200 µM: Staphylococcus aureus; for inhibition at 25 µM: ATCC25923, 25 µM; for inhibition at 50 µM: ATCC25923, 50 µM; for inhibition at 100 µM: ATCC25923, 100 µM; for inhibition at 200 µM: ATCC25923, 200 µM
Summary of the method: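 Biofilms grown 18 h without compound, medium then replaced and compound added for a further 24 h. Planktonic OD and resazurin (20 μM final) fluorescence (ex 560/em 590 nm) read; washed biofilms stained with 20 μM resazurin 30 min at 37 °C, then ethanol-fixed and crystal violet-stained, absorbance 595 nm.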

[3] = read-out: Average inhibition %, biofilms biomass
[4] = read-out: Average inhibition %, planktonic cells turbidity

CCCCCCCCc1ccc(CCC(N)(CO)CO)cc1 [fingolimod, Fingolimod]
MIC (S. aureus ATCC 25923 [1]; Staphylococcus aureus, ATCC25923, lowest concentration with no visible growth (>90% inhibition of turbidity and viability of planktonic cells), 18 h, read-out: MIC S. aureus ATCC 25923): 15 µM (≈ 4.61 µg/mL)
inhibition at 5 µM (S. aureus ATCC 25923 [1]; Staphylococcus aureus, ATCC25923, 5 µM, read-out: Average inhibition %, biofilms biomass): 37 ± 11.2%
inhibition at 5 µM (S. aureus ATCC 25923 [1]; Staphylococcus aureus, ATCC25923, 5 µM, read-out: Average inhibition %, planktonic cells turbidity): 25 ± 10.6%
inhibition at 10 µM (S. aureus ATCC 25923 [1]; Staphylococcus aureus, ATCC25923, 10 µM, read-out: Average inhibition %, biofilms biomass): 42.2 ± 5%
inhibition at 10 µM (S. aureus ATCC 25923 [1]; Staphylococcus aureus, ATCC25923, 10 µM, read-out: Average inhibition %, planktonic cells turbidity): 36.7 ± 10%
inhibition at 15 µM (S. aureus ATCC 25923 [1]; Staphylococcus aureus, ATCC25923, 15 µM, read-out: Average inhibition %, biofilms biomass): 91.7 ± 6%
inhibition at 15 µM (S. aureus ATCC 25923 [1]; Staphylococcus aureus, ATCC25923, 15 µM, read-out: Average inhibition %, planktonic cells turbidity): 99.8 ± 0.1%
inhibition at 25 µM (S. aureus ATCC 25923 [1]; Staphylococcus aureus, ATCC25923, 25 µM, read-out: Average inhibition %, biofilms biomass): 90.8 ± 6.9%
inhibition at 25 µM (S. aureus ATCC 25923 [1]; Staphylococcus aureus, ATCC25923, 25 µM, read-out: Average inhibition %, planktonic cells turbidity): 99.8 ± 0.1%
Average inhibition %, biofilms viability (S. aureus ATCC 25923 [1]; 5 µM): 38.7 ± 5.5%
Average inhibition %, planktonic cells viability (S. aureus ATCC 25923 [1]; 5 µM): 16.1 ± 26.5%
Average inhibition %, biofilms viability (S. aureus ATCC 25923 [1]; 10 µM): 41.5 ± 7.1%
Average inhibition %, planktonic cells viability (S. aureus ATCC 25923 [1]; 10 µM): 17.2 ± 23.4%
Average inhibition %, biofilms viability (S. aureus ATCC 25923 [1]; 15 µM): 99.7 ± 0.2%
Average inhibition %, planktonic cells viability (S. aureus ATCC 25923 [1]; 15 µM): 99.9 ± 0%
Average inhibition %, biofilms viability (S. aureus ATCC 25923 [1]; 25 µM): 99.5 ± 0.1%
Average inhibition %, planktonic cells viability (S. aureus ATCC 25923 [1]; 25 µM): 99.9 ± 0.1%
Average inhibition %, biofilms viability (A. baumannii NCTC 13423; 10 µM): 0.2 ± 0.5%
Average inhibition %, planktonic cells viability (A. baumannii NCTC 13423; 10 µM): 5.9 ± 4.9%
Average inhibition %, biofilms viability (A. baumannii NCTC 13423; 15 µM): 63.6 ± 31.5%
Average inhibition %, planktonic cells viability (A. baumannii NCTC 13423; 15 µM): 74.1 ± 38.2%
Average inhibition %, biofilms viability (A. baumannii NCTC 13423; 25 µM): 97.6 ± 2.3%
Average inhibition %, planktonic cells viability (A. baumannii NCTC 13423; 25 µM): 99.5 ± 0.3%
Average inhibition %, biofilms viability (A. baumannii NCTC 13423; 50 µM): 98.4 ± 1.1%
Average inhibition %, planktonic cells viability (A. baumannii NCTC 13423; 50 µM): 99.4 ± 0.4%
inhibition at 10 µM (A. baumannii NCTC 13423; Acinetobacter baumannii, NCTC13423, 10 µM, read-out: Average inhibition %, biofilms biomass): 1.9 ± 3.9%
inhibition at 10 µM (A. baumannii NCTC 13423; Acinetobacter baumannii, NCTC13423, 10 µM, read-out: Average inhibition %, planktonic cells turbidity): 0%
inhibition at 15 µM (A. baumannii NCTC 13423; Acinetobacter baumannii, NCTC13423, 15 µM, read-out: Average inhibition %, biofilms biomass): 44.1 ± 26.9%
inhibition at 15 µM (A. baumannii NCTC 13423; Acinetobacter baumannii, NCTC13423, 15 µM, read-out: Average inhibition %, planktonic cells turbidity): 71.1 ± 37.7%
inhibition at 25 µM (A. baumannii NCTC 13423; Acinetobacter baumannii, NCTC13423, 25 µM, read-out: Average inhibition %, biofilms biomass): 79.2 ± 13.4%
inhibition at 25 µM (A. baumannii NCTC 13423; Acinetobacter baumannii, NCTC13423, 25 µM, read-out: Average inhibition %, planktonic cells turbidity): 98.8 ± 2%
inhibition at 50 µM (A. baumannii NCTC 13423; Acinetobacter baumannii, NCTC13423, 50 µM, read-out: Average inhibition %, biofilms biomass): 84.8 ± 7.8%
inhibition at 50 µM (A. baumannii NCTC 13423; Acinetobacter baumannii, NCTC13423, 50 µM, read-out: Average inhibition %, planktonic cells turbidity): 98.5 ± 1.4%
MIC (A. baumannii NCTC 13423; Acinetobacter baumannii, NCTC13423, pre-exposure, Inactive = no activity up to 50 μM, > = some inhibition but no MIC reached, read-out: MIC A. baumannii NCTC 13423): 25 µM (≈ 7.69 µg/mL)
Average inhibition %, biofilms viability (P. aeruginosa ATCC 9027; 50 µM): 12.4 ± 13.4%
Average inhibition %, planktonic cells viability (P. aeruginosa ATCC 9027; 50 µM): 43.9 ± 35.5%
Average inhibition %, biofilms viability (P. aeruginosa ATCC 9027; 100 µM): 36.5 ± 23.1%
Average inhibition %, planktonic cells viability (P. aeruginosa ATCC 9027; 100 µM): 92.5 ± 4.8%
Average inhibition %, biofilms viability (P. aeruginosa ATCC 9027; 150 µM): 42.4 ± 25.3%
Average inhibition %, planktonic cells viability (P. aeruginosa ATCC 9027; 150 µM): 94.2 ± 3.6%
Average inhibition %, biofilms viability (P. aeruginosa ATCC 9027; 200 µM): 47.5 ± 22.6%
Average inhibition %, planktonic cells viability (P. aeruginosa ATCC 9027; 200 µM): 95 ± 1.2%
MIC (P. aeruginosa ATCC 9027; Pseudomonas aeruginosa, ATCC9027, pre-exposure, Inactive = no activity up to 200 μM, > = some inhibition but no MIC reached, read-out: MIC P. aeruginosa ATCC 9027): > 200 µM
inhibition at 50 µM (P. aeruginosa ATCC 9027; Pseudomonas aeruginosa, 50 µM, read-out: Average inhibition %, biofilms biomass): 30.1 ± 16.2%
inhibition at 50 µM (P. aeruginosa ATCC 9027; Pseudomonas aeruginosa, 50 µM, read-out: Average inhibition %, planktonic cells turbidity): 51.5 ± 24%
inhibition at 100 µM (P. aeruginosa ATCC 9027; Pseudomonas aeruginosa, 100 µM, read-out: Average inhibition %, biofilms biomass): 36.9 ± 13.7%
inhibition at 100 µM (P. aeruginosa ATCC 9027; Pseudomonas aeruginosa, 100 µM, read-out: Average inhibition %, planktonic cells turbidity): 85.9 ± 3.6%
inhibition at 150 µM (P. aeruginosa ATCC 9027; Pseudomonas aeruginosa, 150 µM, read-out: Average inhibition %, biofilms biomass): 40.7 ± 17.8%
inhibition at 150 µM (P. aeruginosa ATCC 9027; Pseudomonas aeruginosa, 150 µM, read-out: Average inhibition %, planktonic cells turbidity): 86.8 ± 3.4%
inhibition at 200 µM (P. aeruginosa ATCC 9027; Pseudomonas aeruginosa, 200 µM, read-out: Average inhibition %, biofilms biomass): 45.4 ± 18.5%
inhibition at 200 µM (P. aeruginosa ATCC 9027; Pseudomonas aeruginosa, 200 µM, read-out: Average inhibition %, planktonic cells turbidity): 85.1 ± 3.8%
MIC P. aeruginosa ATCC 9027 (P. aeruginosa ATCC 9027; pre-exposure, Inactive = no activity up to 200 μM, > = some inhibition but no MIC reached, listed as Fgd): > 200 ^b μM
Average inhibition %, biofilms viability (S. aureus ATCC 25923 [2]; 25 µM): 19.2 ± 14.5%
Average inhibition %, planktonic cells viability (S. aureus ATCC 25923 [2]; 25 µM): 7.8 ± 3.6%
Average inhibition %, biofilms viability (S. aureus ATCC 25923 [2]; 50 µM): 35 ± 7%
Average inhibition %, planktonic cells viability (S. aureus ATCC 25923 [2]; 50 µM): 2.9 ± 2.6%
Average inhibition %, biofilms viability (S. aureus ATCC 25923 [2]; 100 µM): 52.2 ± 12.4%
Average inhibition %, planktonic cells viability (S. aureus ATCC 25923 [2]; 100 µM): 48.9 ± 16.2%
Average inhibition %, biofilms viability (S. aureus ATCC 25923 [2]; 200 µM): 77.3 ± 19%
Average inhibition %, planktonic cells viability (S. aureus ATCC 25923 [2]; 200 µM): 90.5 ± 9.9%
inhibition at 25 µM (S. aureus ATCC 25923 [2]; [3]): 39.7 ± 16.2%
inhibition at 25 µM (S. aureus ATCC 25923 [2]; [4]): 1.1 ± 2%
inhibition at 50 µM (S. aureus ATCC 25923 [2]; [3]): 60.7 ± 12.4%
inhibition at 50 µM (S. aureus ATCC 25923 [2]; [4]): 13.8 ± 11.2%
inhibition at 100 µM (S. aureus ATCC 25923 [2]; [3]): 67.3 ± 9.5%
inhibition at 100 µM (S. aureus ATCC 25923 [2]; [4]): 42.4 ± 7%
inhibition at 200 µM (S. aureus ATCC 25923 [2]; [3]): 71 ± 11%
inhibition at 200 µM (S. aureus ATCC 25923 [2]; [4]): 75.5 ± 11%
